From article PMC4979471 (Cell Death Discovery, 2015)
Where two headings read alike, the source gives them in different places.

Experiments:
Experiment in all cases: Kinase selectivity, P33-radiolabeled assay
Assay type in all cases: biochemical
Details in all cases: 10 μM ATP
NEK7 = target: T1, NEK7 (Homo sapiens, UniProt Q8TDX7)
T1 construct: purchased Reaction Biology Corp
How it was run: (§1)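 Activity relative to DMSO controls (%) was measured for compound at 10 μM. Assays ran at 10 μM ATP, in duplicate.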

PAK2 = target: T2, PAK2 (Homo sapiens, UniProt Q13177)
T2 construct: purchased Reaction Biology Corp
How it was run: as §1

DLK/MAP3K12 = target: T3, DLK/MAP3K12 (Homo sapiens, UniProt Q12852)
T3 construct: purchased Reaction Biology Corp
T3 sequence (Q12852 1-859): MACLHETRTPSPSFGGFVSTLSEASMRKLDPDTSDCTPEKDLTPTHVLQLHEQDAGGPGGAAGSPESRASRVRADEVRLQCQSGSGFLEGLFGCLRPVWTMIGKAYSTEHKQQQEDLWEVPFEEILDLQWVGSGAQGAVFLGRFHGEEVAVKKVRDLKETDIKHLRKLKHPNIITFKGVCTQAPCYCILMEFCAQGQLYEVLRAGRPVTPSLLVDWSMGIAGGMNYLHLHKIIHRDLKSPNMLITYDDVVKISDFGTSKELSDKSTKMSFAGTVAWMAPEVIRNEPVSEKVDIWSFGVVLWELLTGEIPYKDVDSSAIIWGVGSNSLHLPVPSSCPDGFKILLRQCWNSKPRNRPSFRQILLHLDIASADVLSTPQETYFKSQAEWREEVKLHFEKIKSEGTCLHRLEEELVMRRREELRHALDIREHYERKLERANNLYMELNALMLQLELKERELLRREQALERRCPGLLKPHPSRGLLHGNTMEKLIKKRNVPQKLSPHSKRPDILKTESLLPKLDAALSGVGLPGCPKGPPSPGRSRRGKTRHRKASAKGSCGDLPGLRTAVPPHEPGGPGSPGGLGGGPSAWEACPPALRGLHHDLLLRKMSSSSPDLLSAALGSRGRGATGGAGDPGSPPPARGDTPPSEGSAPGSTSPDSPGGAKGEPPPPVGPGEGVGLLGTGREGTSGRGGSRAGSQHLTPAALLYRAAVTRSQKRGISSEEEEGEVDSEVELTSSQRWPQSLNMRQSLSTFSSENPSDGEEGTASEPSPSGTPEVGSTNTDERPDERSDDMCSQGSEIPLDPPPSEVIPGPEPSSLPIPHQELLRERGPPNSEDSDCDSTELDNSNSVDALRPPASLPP
How it was run: as §1

ERK1 = target: T4, ERK1 (Homo sapiens, UniProt P27361)
T4 construct: purchased Reaction Biology Corp
How it was run: as §1

CDK2/Cyclin A1 = target: T5, CDK2/Cyclin A1 (Homo sapiens, UniProt P24941)
T5 construct: purchased Reaction Biology Corp
How it was run: as §1

MLK3/MAP3K11 = target: T6, MLK3/MAP3K11 (Homo sapiens, UniProt Q16584)
T6 construct: purchased Reaction Biology Corp
How it was run: as §1

IKKa/CHUK = target: T7, IKKa/CHUK (Homo sapiens, UniProt O15111)
T7 construct: purchased Reaction Biology Corp
T7 sequence (O15111 1-745): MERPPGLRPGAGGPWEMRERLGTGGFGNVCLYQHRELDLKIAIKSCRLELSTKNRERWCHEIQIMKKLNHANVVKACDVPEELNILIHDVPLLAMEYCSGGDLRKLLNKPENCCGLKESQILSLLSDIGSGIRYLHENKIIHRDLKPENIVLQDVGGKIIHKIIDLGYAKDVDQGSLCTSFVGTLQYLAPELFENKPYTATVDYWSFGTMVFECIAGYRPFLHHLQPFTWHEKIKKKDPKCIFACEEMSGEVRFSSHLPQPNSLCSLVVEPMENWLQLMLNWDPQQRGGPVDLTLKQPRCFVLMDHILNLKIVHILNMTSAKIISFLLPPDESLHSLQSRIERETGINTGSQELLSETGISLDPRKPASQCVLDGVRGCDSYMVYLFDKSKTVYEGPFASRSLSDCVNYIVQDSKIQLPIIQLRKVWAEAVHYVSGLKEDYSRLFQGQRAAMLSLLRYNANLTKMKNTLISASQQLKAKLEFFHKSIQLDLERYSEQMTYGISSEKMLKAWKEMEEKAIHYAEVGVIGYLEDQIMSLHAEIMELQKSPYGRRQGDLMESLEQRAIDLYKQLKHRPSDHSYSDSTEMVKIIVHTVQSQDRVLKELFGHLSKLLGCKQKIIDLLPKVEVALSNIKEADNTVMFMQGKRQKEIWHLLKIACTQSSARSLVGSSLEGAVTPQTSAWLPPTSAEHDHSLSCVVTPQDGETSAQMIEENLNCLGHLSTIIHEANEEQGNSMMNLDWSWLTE
How it was run: as §1

STK22D/TSSK1 = target: T8, STK22D/TSSK1 (Homo sapiens, UniProt Q9BXA7)
T8 construct: purchased Reaction Biology Corp
T8 sequence (Q9BXA7 1-367): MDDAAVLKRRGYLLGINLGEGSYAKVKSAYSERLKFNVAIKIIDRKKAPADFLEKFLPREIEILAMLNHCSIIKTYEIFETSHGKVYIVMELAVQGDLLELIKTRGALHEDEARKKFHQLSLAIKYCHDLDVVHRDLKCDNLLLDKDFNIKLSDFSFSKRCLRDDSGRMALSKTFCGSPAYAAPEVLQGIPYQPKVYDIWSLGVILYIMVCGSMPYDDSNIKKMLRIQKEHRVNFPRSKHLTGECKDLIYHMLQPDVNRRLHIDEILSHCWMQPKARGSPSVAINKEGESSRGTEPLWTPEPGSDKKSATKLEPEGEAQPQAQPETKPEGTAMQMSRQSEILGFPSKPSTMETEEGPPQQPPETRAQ
How it was run: as §1

CLK1 = target: T9, CLK1 (Homo sapiens, UniProt P49759)
T9 construct: purchased Reaction Biology Corp
How it was run: as §1

LIMK1 = target: T10, LIMK1 (Homo sapiens, UniProt P53667)
T10 construct: purchased Reaction Biology Corp
How it was run: as §1

[1] = read-out: % Enzyme Activity (relative to DMSO controls) AVG
[2] = read-out: % Enzyme Activity (relative to DMSO controls) Data 1
[3] = read-out: % Enzyme Activity (relative to DMSO controls) Data 2

T4 sequence (P27361 whole entry): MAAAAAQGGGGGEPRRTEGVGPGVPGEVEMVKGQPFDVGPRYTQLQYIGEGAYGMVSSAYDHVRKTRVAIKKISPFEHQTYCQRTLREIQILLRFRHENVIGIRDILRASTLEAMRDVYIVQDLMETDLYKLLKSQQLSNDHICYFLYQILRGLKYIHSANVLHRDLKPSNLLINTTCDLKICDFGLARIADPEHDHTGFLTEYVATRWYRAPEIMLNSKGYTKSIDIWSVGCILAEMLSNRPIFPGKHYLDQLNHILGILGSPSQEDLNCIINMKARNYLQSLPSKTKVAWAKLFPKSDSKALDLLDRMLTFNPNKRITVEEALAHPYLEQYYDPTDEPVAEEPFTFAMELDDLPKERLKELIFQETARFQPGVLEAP
T10 sequence (P53667 whole entry): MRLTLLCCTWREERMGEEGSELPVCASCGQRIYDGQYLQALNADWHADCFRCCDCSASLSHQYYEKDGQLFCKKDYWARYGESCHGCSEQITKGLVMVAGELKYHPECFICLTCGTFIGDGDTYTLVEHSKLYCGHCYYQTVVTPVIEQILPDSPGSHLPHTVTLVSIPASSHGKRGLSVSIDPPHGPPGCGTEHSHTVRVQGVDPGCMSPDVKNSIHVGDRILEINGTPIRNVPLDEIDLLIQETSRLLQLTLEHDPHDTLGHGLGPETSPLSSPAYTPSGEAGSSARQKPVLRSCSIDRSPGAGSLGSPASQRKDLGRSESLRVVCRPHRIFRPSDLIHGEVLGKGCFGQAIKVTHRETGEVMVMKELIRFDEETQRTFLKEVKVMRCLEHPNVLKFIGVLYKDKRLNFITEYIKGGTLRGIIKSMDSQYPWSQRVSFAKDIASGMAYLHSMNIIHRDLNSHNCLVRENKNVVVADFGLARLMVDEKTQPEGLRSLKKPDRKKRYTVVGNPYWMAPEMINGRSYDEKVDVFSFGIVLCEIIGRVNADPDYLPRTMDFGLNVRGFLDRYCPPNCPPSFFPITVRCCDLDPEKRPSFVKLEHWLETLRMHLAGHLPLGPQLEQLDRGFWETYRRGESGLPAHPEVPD
T6 sequence (Q16584 whole entry): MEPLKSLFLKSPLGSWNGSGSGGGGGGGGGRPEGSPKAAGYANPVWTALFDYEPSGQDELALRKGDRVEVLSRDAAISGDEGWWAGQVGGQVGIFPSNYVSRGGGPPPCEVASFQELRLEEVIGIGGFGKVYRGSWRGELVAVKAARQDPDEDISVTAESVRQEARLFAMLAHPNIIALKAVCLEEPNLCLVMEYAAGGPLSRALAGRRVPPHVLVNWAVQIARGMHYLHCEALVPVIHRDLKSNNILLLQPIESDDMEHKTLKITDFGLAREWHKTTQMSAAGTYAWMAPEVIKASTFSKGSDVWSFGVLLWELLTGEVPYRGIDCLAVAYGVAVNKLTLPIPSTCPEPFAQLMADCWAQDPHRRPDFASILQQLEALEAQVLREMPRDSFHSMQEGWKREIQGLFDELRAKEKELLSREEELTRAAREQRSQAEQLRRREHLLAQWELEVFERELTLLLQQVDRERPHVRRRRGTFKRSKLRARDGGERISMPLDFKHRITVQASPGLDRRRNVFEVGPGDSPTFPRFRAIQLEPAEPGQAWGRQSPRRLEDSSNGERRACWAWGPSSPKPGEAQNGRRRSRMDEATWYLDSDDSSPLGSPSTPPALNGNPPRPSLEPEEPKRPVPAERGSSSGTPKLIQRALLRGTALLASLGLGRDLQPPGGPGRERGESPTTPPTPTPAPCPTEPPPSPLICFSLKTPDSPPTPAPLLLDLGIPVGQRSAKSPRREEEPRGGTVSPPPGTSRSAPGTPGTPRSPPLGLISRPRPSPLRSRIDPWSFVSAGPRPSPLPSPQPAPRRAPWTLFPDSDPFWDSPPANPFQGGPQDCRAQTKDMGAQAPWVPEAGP
T9 sequence (P49759 whole entry): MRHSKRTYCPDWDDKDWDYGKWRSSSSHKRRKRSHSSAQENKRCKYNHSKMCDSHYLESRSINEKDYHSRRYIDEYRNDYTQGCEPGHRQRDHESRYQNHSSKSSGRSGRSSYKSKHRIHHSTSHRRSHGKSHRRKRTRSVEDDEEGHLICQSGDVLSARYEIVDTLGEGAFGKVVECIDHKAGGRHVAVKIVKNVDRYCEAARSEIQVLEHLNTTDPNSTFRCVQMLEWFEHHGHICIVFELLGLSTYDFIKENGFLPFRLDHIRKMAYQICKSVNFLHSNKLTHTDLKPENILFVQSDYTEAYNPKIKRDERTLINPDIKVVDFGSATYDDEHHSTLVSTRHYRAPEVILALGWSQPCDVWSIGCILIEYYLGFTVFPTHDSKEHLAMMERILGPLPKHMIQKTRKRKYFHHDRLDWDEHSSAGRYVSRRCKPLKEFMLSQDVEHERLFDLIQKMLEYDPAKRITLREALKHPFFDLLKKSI
T2 sequence (Q13177 whole entry): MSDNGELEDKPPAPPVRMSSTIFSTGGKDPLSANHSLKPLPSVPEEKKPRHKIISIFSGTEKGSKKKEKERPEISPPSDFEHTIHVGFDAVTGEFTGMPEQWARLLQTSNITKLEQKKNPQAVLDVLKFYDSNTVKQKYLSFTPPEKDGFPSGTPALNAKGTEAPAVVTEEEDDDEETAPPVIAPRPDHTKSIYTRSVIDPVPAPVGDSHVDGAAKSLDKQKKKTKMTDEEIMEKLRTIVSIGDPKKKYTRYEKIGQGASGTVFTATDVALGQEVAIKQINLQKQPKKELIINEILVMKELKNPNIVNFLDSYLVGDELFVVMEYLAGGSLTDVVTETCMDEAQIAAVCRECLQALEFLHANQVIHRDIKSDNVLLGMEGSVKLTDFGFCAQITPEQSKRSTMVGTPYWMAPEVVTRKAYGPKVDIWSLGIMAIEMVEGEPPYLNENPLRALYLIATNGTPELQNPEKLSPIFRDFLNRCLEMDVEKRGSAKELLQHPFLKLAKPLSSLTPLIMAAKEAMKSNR
T1 sequence (Q8TDX7 whole entry): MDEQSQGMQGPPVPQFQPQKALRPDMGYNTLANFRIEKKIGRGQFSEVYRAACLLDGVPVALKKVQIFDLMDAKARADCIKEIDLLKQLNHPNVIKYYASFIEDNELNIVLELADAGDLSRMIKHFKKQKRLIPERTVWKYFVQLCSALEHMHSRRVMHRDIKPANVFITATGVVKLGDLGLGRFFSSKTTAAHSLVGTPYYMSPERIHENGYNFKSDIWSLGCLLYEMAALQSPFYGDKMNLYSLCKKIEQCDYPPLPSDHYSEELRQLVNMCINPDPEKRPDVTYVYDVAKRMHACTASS

Work on CC(C)(C)C(=O)N1N=CC[C@H]1c1ccccc1 [GSK′963] yielded a remaining activity at 10 µM (NEK7; [1]) of 98.6%, a remaining activity at 10 µM (NEK7; [2]) of 98.1% and a remaining activity at 10 µM (NEK7; [3]) of 99%. The remaining activity at 10 µM (PAK2; [1]) was 95.8%, the remaining activity at 10 µM (PAK2; [2]) was 94.9% and the remaining activity at 10 µM (PAK2; [3]) was 96.8%. For the same molecule, the remaining activity at 10 µM (DLK/MAP3K12; [1]) was 104%, the remaining activity at 10 µM (DLK/MAP3K12; [2]) was 106% and the remaining activity at 10 µM (DLK/MAP3K12; [3]) was 102%. The remaining activity at 10 µM (ERK1; [1]) was 102%, the remaining activity at 10 µM (ERK1; [2]) was 98.8% and the remaining activity at 10 µM (ERK1; [3]) was 104%. It also gave a remaining activity at 10 µM (CDK2/Cyclin A1; [1]) of 107%, a remaining activity at 10 µM (CDK2/Cyclin A1; [2]) of 107% and a remaining activity at 10 µM (CDK2/Cyclin A1; [3]) of 107%. For the same molecule, the remaining activity at 10 µM (MLK3/MAP3K11; [1]) was 95%, the remaining activity at 10 µM (MLK3/MAP3K11; [2]) was 96% and the remaining activity at 10 µM (MLK3/MAP3K11; [3]) was 94%. For the same molecule, the remaining activity at 10 µM (IKKa/CHUK; [1]) was 89.5%, the remaining activity at 10 µM (IKKa/CHUK; [2]) was 91.1% and the remaining activity at 10 µM (IKKa/CHUK; [3]) was 88%. For the same molecule, the remaining activity at 10 µM (STK22D/TSSK1; [1]) was 110%, the remaining activity at 10 µM (STK22D/TSSK1; [2]) was 108% and the remaining activity at 10 µM (STK22D/TSSK1; [3]) was 112%. It also gave a remaining activity at 10 µM (CLK1; [1]) of 107%, a remaining activity at 10 µM (CLK1; [2]) of 108% and a remaining activity at 10 µM (CLK1; [3]) of 106%. The remaining activity at 10 µM (LIMK1; [1]) was 113%, the remaining activity at 10 µM (LIMK1; [2]) was 112% and the remaining activity at 10 µM (LIMK1; [3]) was 114%.
